# Measurements as given in US10604554B2, “Double-acylated GLP-1 derivatives” (Novo Nordisk A/S, priority 2012, dated 2020).
# Where two headings read alike, the source gives them in different places. Numbered stars: 1 amine (or outer) side, 2 acyl side, 3 side chain; on linkers, the order of the positions; unused ones are H or OH. Square brackets hold non-standard residues; d marks the D form. Side chains are listed from the residue outwards. Peptide text beside a SMILES is read from it. * marks the point of attachment. Decanoyl(10-(4-HOOC-PhO)) = O=C(O)c1ccc(OCCCCCCCCCC(=O)*)cc1; γGlu = O=C(O)[C@H](CCC(=O)[*:2])N[*:1]; εLys = N[C@@H](CCCCN[*:1])C(=O)[*:2]; AEEA = NCCOCCOCC(=O)O; Aib = CC(C)(N)C(=O)O
# Target: T1, human GLP-1 receptor (Homo sapiens, UniProt P43220)
# T1 construct: expressed in transfected cells; host or cells: BHK cells, clone FCW467-12A/KZ10-1 (parent line BHKTS13), further transfected with CRE luciferase
# T1 sequence (P43220 24-463): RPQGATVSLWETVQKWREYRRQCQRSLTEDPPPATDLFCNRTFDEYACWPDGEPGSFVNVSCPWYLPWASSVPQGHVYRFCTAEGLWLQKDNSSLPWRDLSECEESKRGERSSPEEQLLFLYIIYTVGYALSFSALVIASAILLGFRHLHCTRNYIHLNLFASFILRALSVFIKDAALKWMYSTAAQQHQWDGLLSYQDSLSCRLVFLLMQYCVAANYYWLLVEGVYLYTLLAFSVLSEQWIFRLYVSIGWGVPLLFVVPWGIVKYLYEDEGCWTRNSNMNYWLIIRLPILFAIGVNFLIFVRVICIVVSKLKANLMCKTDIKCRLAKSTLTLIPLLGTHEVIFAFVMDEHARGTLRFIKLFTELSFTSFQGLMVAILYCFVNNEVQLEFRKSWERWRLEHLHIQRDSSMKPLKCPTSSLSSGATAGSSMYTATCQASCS
# Assay: In vitro potency (CRE luciferase; whole cells)
# Assay type: cell-based
# Parameters: EC50/pM (ratio 1% HSA/0% HSA): unit not given here
# Conditions: for EC50: BHK cells; for EC50/pM (ratio 1% HSA/0% HSA): ratio of EC50 at 1% HSA to EC50 at 0% HSA
# How it was run: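 Reporter: CRE-luciferase in BHK cells stably expressing human GLP-1R, 5×10^3 cells/well; compounds tested in buffer containing 0% or 1% HSA.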
# [1] = In vitro potency (CRE luciferase) EC50 (0% HSA), 0% HSA
# [2] = In vitro potency (CRE luciferase) EC50 (1% HSA), 1% HSA
"EC50 (0% HSA, read-out: In vitro potency (CRE luciferase) EC50 (0% HSA)) [nM]",Structure (SMILES),EC50 [1] [nM],EC50 [2] [nM],EC50/pM (ratio 1% HSA/0% HSA)
,"CC[C@H](C)[C@H](NC(=O)[C@H](Cc1ccccc1)NC(=O)[C@H](CCC(=O)O)NC(=O)[C@H](CCCCNC(=O)[C@@H](N)CCCCNC(=O)[C@@H](N)CCCCNC(=O)CC[C@H](NC(=O)CC[C@H](NC(=O)CCCCCCCCCCCOc1ccc(C(=O)O)cc1)C(=O)O)C(=O)O)NC(=O)[C@H](C)NC(=O)[C@H](C)NC(=O)[C@H](CCC(N)=O)NC(=O)CNC(=O)[C@H](CCC(=O)O)NC(=O)[C@H](CC(C)C)NC(=O)[C@H](Cc1ccc(O)cc1)NC(=O)[C@H](CO)NC(=O)[C@H](CO)NC(=O)[C@@H](NC(=O)[C@H](CC(=O)O)NC(=O)[C@H](CO)NC(=O)[C@@H](NC(=O)[C@H](Cc1ccccc1)NC(=O)[C@@H](NC(=O)CNC(=O)[C@H](CCC(=O)O)NC(=O)C(C)(C)NC(=O)[C@@H](N)Cc1c[nH]cn1)[C@@H](C)O)[C@@H](C)O)C(C)C)C(=O)N[C@@H](C)C(=O)N[C@@H](Cc1c[nH]c2ccccc12)C(=O)N[C@@H](CC(C)C)C(=O)N[C@H](C(=O)N[C@@H](CCCNC(=N)N)C(=O)NCC(=O)N[C@@H](CCCNC(=N)N)C(=O)N[C@@H](CCCCNC(=O)[C@@H](N)CCCCNC(=O)[C@@H](N)CCCCNC(=O)CC[C@H](NC(=O)CC[C@H](NC(=O)CCCCCCCCCCCOc1ccc(C(=O)O)cc1)C(=O)O)C(=O)O)C(=O)O)C(C)C [Example 16, N^ε26-[(2S)-2-amino-6-[[(2S)-2-amino-6-[[(4S)-4-carboxy-4-[[(4S)-4-carboxy-4-[12-(4-carboxyphenoxy)dodecanoylamino]butanoyl]amino]butanoyl]amino]hexanoyl]amino]hexanoyl], N^ε37-[(2S)-2-amino-6-[[(2S)-2-amino-6-[[(4S)-4-carboxy-4-[[(4S)-4-carboxy-4-[12-(4-carboxyphenoxy)dodecanoylamino]butanoyl]amino]butanoyl]amino]hexanoyl]amino]hexanoyl]-[Aib^8,Arg^34,Lys^37]-GLP-1-(7-37)-peptide]",0.0033,0.047,14
,"CC[C@H](C)[C@H](NC(=O)[C@H](Cc1ccccc1)NC(=O)[C@H](CCC(=O)O)NC(=O)[C@H](CCCCNC(=O)[C@@H](N)CCCCNC(=O)CC[C@H](NC(=O)CC[C@H](NC(=O)CC[C@H](NC(=O)CCCCCCCCCCCOc1ccc(C(=O)O)cc1)C(=O)O)C(=O)O)C(=O)O)NC(=O)[C@H](C)NC(=O)[C@H](C)NC(=O)[C@H](CCC(N)=O)NC(=O)CNC(=O)[C@H](CCC(=O)O)NC(=O)[C@H](CC(C)C)NC(=O)[C@H](Cc1ccc(O)cc1)NC(=O)[C@H](CO)NC(=O)[C@H](CO)NC(=O)[C@@H](NC(=O)[C@H](CC(=O)O)NC(=O)[C@H](CO)NC(=O)[C@@H](NC(=O)[C@H](Cc1ccccc1)NC(=O)[C@@H](NC(=O)CNC(=O)[C@H](CCC(=O)O)NC(=O)C(C)(C)NC(=O)[C@@H](N)Cc1c[nH]cn1)[C@@H](C)O)[C@@H](C)O)C(C)C)C(=O)N[C@@H](C)C(=O)N[C@@H](Cc1c[nH]c2ccccc12)C(=O)N[C@@H](CC(C)C)C(=O)N[C@H](C(=O)N[C@@H](CCCNC(=N)N)C(=O)NCC(=O)N[C@@H](CCCNC(=N)N)C(=O)N[C@@H](CCCCNC(=O)[C@@H](N)CCCCNC(=O)CC[C@H](NC(=O)CC[C@H](NC(=O)CC[C@H](NC(=O)CCCCCCCCCCCOc1ccc(C(=O)O)cc1)C(=O)O)C(=O)O)C(=O)O)C(=O)O)C(C)C [Example 17, N^ε26-[(2S)-2-amino-6-[[(4S)-4-carboxy-4-[[(4S)-4-carboxy-4-[[(4S)-4-carboxy-4-[12-(4-carboxyphenoxy)dodecanoylamino]butanoyl]amino]butanoyl]amino]butanoyl]amino]hexanoyl], N^ε37-[(2S)-2-amino-6-[[(4S)-4-carboxy-4-[[(4S)-4-carboxy-4-[[(4S)-4-carboxy-4-[12-(4-carboxyphenoxy)dodecanoylamino]butanoyl]amino]butanoyl]amino]butanoyl]amino]hexanoyl]-[Aib^8,Arg^34,Lys^37]-GLP-1-(7-37)-peptide]",0.0033,,
,CC[C@H](C)[C@H](NC(=O)[C@H](Cc1ccccc1)NC(=O)[C@H](CCC(=O)O)NC(=O)[C@H](CCCCNC(=O)[C@@H](N)CCCCNC(=O)COCCOCCNC(=O)COCCOCCNC(=O)CC[C@H](NC(=O)CCCCCCCCCOc1ccc(C(=O)O)cc1)C(=O)O)NC(=O)[C@H](C)NC(=O)[C@H](C)NC(=O)[C@H](CCC(N)=O)NC(=O)[C@H](CCC(=O)O)NC(=O)[C@H](CCC(=O)O)NC(=O)[C@H](CC(C)C)NC(=O)[C@H](Cc1ccc(O)cc1)NC(=O)[C@H](CO)NC(=O)[C@H](CO)NC(=O)[C@@H](NC(=O)[C@H](CC(=O)O)NC(=O)[C@H](CO)NC(=O)[C@@H](NC(=O)[C@H](Cc1ccccc1)NC(=O)[C@@H](NC(=O)CNC(=O)[C@H](CCC(=O)O)NC(=O)C(C)(C)NC(=O)[C@@H](N)Cc1c[nH]cn1)[C@@H](C)O)[C@@H](C)O)C(C)C)C(=O)N[C@@H](C)C(=O)N[C@@H](Cc1c[nH]c2ccccc12)C(=O)N[C@@H](CC(C)C)C(=O)N[C@H](C(=O)N[C@@H](CCC(N)=O)C(=O)NCC(=O)N[C@@H](CCCNC(=N)N)C(=O)N[C@@H](CCCCNC(=O)[C@@H](N)CCCCNC(=O)COCCOCCNC(=O)COCCOCCNC(=O)CC[C@H](NC(=O)CCCCCCCCCOc1ccc(C(=O)O)cc1)C(=O)O)C(=O)O)C(C)C [Example 18] (H-H[Aib]EGTFTSDVSSYLEEQAAK([εLys-AEEA-AEEA-γGlu-Decanoyl(10-(4-HOOC-PhO))])EFIAWLVQGRK([εLys-AEEA-AEEA-γGlu-Decanoyl(10-(4-HOOC-PhO))])-OH; N-terminus and C-terminus assumed),0.012,0.079,6.9
0.025,"CC[C@H](C)[C@H](NC(=O)[C@H](Cc1ccccc1)NC(=O)[C@H](CCC(=O)O)NC(=O)[C@H](CCCCNC(=O)[C@@H](N)CCCCNC(=O)COCCOCCNC(=O)COCCOCCNC(=O)CC[C@H](NC(=O)CCCCCCCCCCCCC(=O)O)C(=O)O)NC(=O)[C@H](C)NC(=O)[C@H](C)NC(=O)[C@H](CCC(N)=O)NC(=O)CNC(=O)[C@H](CCC(=O)O)NC(=O)[C@H](CC(C)C)NC(=O)[C@H](Cc1ccc(O)cc1)NC(=O)[C@H](CO)NC(=O)[C@H](CO)NC(=O)[C@@H](NC(=O)[C@H](CC(=O)O)NC(=O)[C@H](CO)NC(=O)[C@@H](NC(=O)[C@H](Cc1ccccc1)NC(=O)[C@@H](NC(=O)CNC(=O)[C@H](CCC(=O)O)NC(=O)C(C)(C)NC(=O)[C@@H](N)Cc1c[nH]cn1)[C@@H](C)O)[C@@H](C)O)C(C)C)C(=O)N[C@@H](C)C(=O)N[C@@H](Cc1c[nH]c2ccccc12)C(=O)N[C@@H](CC(C)C)C(=O)N[C@H](C(=O)N[C@@H](CCCNC(=N)N)C(=O)NCC(=O)N[C@@H](CCCNC(=N)N)C(=O)N[C@@H](CCCCNC(=O)[C@@H](N)CCCCNC(=O)COCCOCCNC(=O)COCCOCCNC(=O)CC[C@H](NC(=O)CCCCCCCCCCCCC(=O)O)C(=O)O)C(=O)O)C(C)C [Example 19, N^ε26-[(2S)-2-amino-6-[[2-[2-[2-[[2-[2-[2-[[(4S)-4-carboxy-4-(13-carboxytridecanoylamino)butanoyl]amino]ethoxy]ethoxy]acetyl]amino]ethoxy]ethoxy]acetyl]amino]hexanoyl], N^ε37-[(2S)-2-amino-6-[[2-[2-[2-[[2-[2-[2-[[(4S)-4-carboxy-4-(13-carboxytridecanoylamino)butanoyl]amino]ethoxy]ethoxy]acetyl]amino]ethoxy]ethoxy]acetyl]amino]hexanoyl]-[Aib^8,Arg^34,Lys^37]-GLP-1-(7-37)-peptide]",,0.051,2.5
